# Measurements published in patent US10952988B2, “Methods for controlling the spread of dirofilariosis” (priority 2015, dated 2021).
# Test system: Dirofilaria immitis (JYD-34) resistant strain
# Details: in vivo
substance,measurement,value
milbemycin oxime,average worms per dog,7.2 worms per dog
same,efficacy (adult worm reduction versus untreated Group 1),70.7%
